Results on twelve compounds are retold here after ChEMBL document CHEMBL1130592, “The synthesis and biological activity of a novel series of diazepine MMP inhibitors” (Bioorg Med Chem Lett, 1998).

In assay [1] the target is Matrix metalloproteinase-9 (Homo sapiens, UniProt P14780). The assay is described as follows: Inhibition of matrix metalloprotease-9 (MMP-9).
The next assay has as its target T1, Interstitial collagenase (Homo sapiens, UniProt P03956).
T1 sequence (P03956 whole entry): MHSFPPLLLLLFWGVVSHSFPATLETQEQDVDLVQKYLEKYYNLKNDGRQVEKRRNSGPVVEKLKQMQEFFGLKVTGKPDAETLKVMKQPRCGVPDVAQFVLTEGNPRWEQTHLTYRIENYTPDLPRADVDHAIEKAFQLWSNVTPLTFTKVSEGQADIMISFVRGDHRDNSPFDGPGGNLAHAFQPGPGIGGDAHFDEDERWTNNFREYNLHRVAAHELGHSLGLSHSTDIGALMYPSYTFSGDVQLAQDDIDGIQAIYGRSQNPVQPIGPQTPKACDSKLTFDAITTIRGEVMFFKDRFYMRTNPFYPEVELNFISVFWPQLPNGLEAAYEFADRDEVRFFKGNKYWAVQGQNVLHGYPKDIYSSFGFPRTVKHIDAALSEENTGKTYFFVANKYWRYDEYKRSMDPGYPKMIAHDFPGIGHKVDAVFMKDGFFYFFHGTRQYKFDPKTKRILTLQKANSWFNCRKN
Put plainly: Inhibition of matrix metalloprotease-1 (MMP-1).

In a further assay the target is Collagenase 3 (Homo sapiens, UniProt P45452).

The IC50 is the concentration at which inhibition is half-maximal. A higher IC50 goes with weaker potency in that assay.

Matrix metalloproteinase-9, sequence (P14780 whole entry): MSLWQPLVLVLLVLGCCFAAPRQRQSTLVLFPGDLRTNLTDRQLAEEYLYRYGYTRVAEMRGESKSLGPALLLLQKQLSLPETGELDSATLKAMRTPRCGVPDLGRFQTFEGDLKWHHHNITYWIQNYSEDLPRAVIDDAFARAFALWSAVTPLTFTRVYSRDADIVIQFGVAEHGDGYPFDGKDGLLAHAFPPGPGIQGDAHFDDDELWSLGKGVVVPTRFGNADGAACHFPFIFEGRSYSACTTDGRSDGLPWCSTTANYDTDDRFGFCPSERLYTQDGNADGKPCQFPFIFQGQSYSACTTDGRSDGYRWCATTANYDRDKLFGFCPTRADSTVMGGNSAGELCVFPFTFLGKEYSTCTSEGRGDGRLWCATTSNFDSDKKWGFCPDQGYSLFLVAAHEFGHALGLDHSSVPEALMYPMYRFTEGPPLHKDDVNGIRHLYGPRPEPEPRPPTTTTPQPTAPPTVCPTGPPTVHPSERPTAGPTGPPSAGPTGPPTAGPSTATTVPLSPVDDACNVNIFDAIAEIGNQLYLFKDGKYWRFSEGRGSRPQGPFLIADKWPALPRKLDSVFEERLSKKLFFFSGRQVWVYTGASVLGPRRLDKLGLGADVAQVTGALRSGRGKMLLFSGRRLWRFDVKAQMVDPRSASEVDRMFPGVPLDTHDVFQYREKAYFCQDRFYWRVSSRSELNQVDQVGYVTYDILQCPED
Description for Collagenase 3: Inhibition of matrix metalloprotease-13 (MMP-13)

For `COc1ccc(S(=O)(=O)N2CCCN(C(=O)N[C@@H](C)c3ccccc3)CC2C(=O)NO)cc1` (stereo partly specified), the values for the 50% inhibitory concentration (IC50) (in assay [1]; against Interstitial collagenase; on Collagenase 3) were 0.0092 µM, 0.312 µM and 0.0104 µM, respectively.

For the compound `COc1ccc(S(=O)(=O)N2CCCN(C(=O)OC(C)(C)C)CC2C(=O)NO)cc1` (stereo unspecified), the 50% inhibitory concentration (IC50) in assay [1] came out at 0.0091 µM; against Interstitial collagenase, 0.618 µM; against Collagenase 3, 0.026 µM.

With `COc1ccc(S(=O)(=O)N2CCCN(C(=O)Nc3ccccc3)CC2C(=O)NO)cc1` (stereo unspecified), the concentration for half-maximal inhibition (IC50) amounted to 0.018 µM in assay [1], 0.309 µM against Interstitial collagenase and 0.017 µM against Collagenase 3.

For the compound `COc1ccc(S(=O)(=O)N2CCCN(C(=O)c3ccccc3-c3ccccc3)CC2C(=O)NO)cc1` (stereo unspecified), the figures for the IC50 (in assay [1]; against Interstitial collagenase; on Collagenase 3) were 0.0033 µM, 0.116 µM and 0.0046 µM, respectively.

As for `COc1ccc(S(=O)(=O)N2CCCN(C(=O)c3ccccc3)CC2C(=O)NO)cc1` (stereo unspecified), the half-inhibitory concentration (IC50) is 0.002 µM in assay [1], 0.045 µM at Interstitial collagenase and 0.0022 µM against Collagenase 3.

Turning to `COc1ccc(S(=O)(=O)N2CCCN(C(=O)C(C)(C)C)CC2C(=O)NO)cc1` (stereo unspecified), the IC50 in assay [1] was determined as 0.0048 µM; against Interstitial collagenase it was 0.251 µM; against Collagenase 3, 0.011 µM.

Regarding `COc1ccc(S(=O)(=O)N2CCCN(C(=O)c3ccc(OC(F)(F)F)cc3)CC2C(=O)NO)cc1` (stereo unspecified), the figures for the IC50 (in assay [1]; on Interstitial collagenase; on Collagenase 3) were 0.004 µM, 0.128 µM and 0.0062 µM, respectively.

`COc1ccc(S(=O)(=O)N2CCCN(Cc3ccccc3)CC2C(=O)NO)cc1` (stereo unspecified): the IC50 worked out at 0.031 µM in assay [1], 0.445 µM on Interstitial collagenase and 0.065 µM against Collagenase 3.

As to `COc1ccc(S(=O)(=O)N2CCCN(C(=O)CN)CC2C(=O)NO)cc1` (stereo unspecified), the values for the IC50 (in assay [1]; on Interstitial collagenase; on Collagenase 3) were 0.157 µM, 0.703 µM and 0.046 µM, respectively.

Take `COc1ccc(S(=O)(=O)N2CCCNCC2C(=O)NO)cc1` (stereo unspecified): the figures for the IC50 (in assay [1]; against Interstitial collagenase; against Collagenase 3) were 0.06 µM, 0.091 µM and 0.0051 µM, respectively.

Consider `COc1ccc(S(=O)(=O)N2CCCN(C(=O)CNC(=O)OC(C)(C)C)CC2C(=O)NO)cc1` (stereo unspecified), for which the IC50 in assay [1] was 0.023 µM; against Interstitial collagenase it was 0.69 µM; against Collagenase 3, 0.016 µM.

Turning to `O=C(NO)C1CN(C(=O)c2ccccc2)CCCN1S(=O)(=O)c1ccc(Oc2ccccc2)cc1` (stereo unspecified), the half-inhibitory concentration (IC50) in assay [1] was 0.0012 µM; at Interstitial collagenase, 0.022 µM; on Collagenase 3 it was 0.0013 µM.
